Experimental data reported in ChEMBL document CHEMBL3352674, “Pyrazolsulfonamide agonists of oxytocin receptor” (ACS Med Chem Lett, 2014).

Target: T1, Oxytocin receptor (Homo sapiens, UniProt P30559)
T1 sequence (P30559 whole entry): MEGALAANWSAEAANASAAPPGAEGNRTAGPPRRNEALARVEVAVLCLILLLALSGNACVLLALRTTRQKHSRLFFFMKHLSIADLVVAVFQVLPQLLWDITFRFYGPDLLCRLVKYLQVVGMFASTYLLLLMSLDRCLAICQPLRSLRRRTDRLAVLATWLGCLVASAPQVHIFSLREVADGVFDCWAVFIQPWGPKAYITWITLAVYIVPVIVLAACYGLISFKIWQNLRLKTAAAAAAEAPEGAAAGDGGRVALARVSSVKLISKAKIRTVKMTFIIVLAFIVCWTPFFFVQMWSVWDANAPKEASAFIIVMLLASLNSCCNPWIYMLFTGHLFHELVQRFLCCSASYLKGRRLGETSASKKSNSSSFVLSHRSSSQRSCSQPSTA
Assay: Agonist activity at human oxytocin receptor expressed CHO cells assessed as calcium flux by FLIPR method
Assay type: functional, cell-based

EC50 [nM] | Structure (SMILES)
19 | O=S(=O)(Nc1ccnn1-c1ccccn1)c1ccc(Cl)cc1F
1570 | O=S(=O)(Nc1ccnn1-c1ncc(C(F)(F)F)cn1)c1ccc(C(F)(F)F)cc1
